From patent US5656288A, “Stable pharmaceutical compositions containing tiludronate hydrates and process for producing the pharmaceutical compositions” (Sanofi Winthrop, Inc., priority 1995, dated 1997)
Entries after “also recorded” stand apart in the source; their conditions may differ.

Legend:
[1] = Hygroscopicity: water content by TGA after storage at defined relative humidity; type: physicochemical
Experimental: (§1) Samples of disodium tiludronate hemihydrate were stressed at humidity levels of 12-95% RH using different saturated salt solutions to obtain a range of relative humidity. The salt solutions used and the corresponding relative humidity are tabulated below:
(§2) The samples were held for 2 weeks at each humidity at 20° C. and analyzed by TGA for moisture content. The samples were also analyzed by FTIR to determine if spectroscopic changes were observed. Samples which increased in moisture content after 2 weeks were then moved to lower relative humidity to determine if the water uptake was reversible.
A sample of the monohydrate form was also stressed with respect to humidity. Samples were stressed at 58-95% RH at 20° C. for 2 weeks.
B) Thermal Gravimetric Analysis (TGA)
Thermal Gravimetric Analysis was performed on the Perkin Elmer TGA-7 system. Samples were weighed into a platinum pan and scanned at a rate of 5° C./min. under nitrogen purge gas.

[2] = Crystal form change under humidity stress (FTIR, XRPD, TGA); type: physicochemical; settings: for changes by TGA / FTIR at low relative humidity: 12-58% RH, 2 weeks; for crystal form change (FTIR, TGA): 75-85% RH (75% and 84% RH samples); for crystal form change (FTIR, XRPD, TGA): 95% RH
Experimental: as §1, §2
C) Fourier Transform Infrared Spectroscopy (FTIR)
FTIR spectra were obtained on the Nicolet 730 system equipped with an MCT detector. Samples were run as KBr dispersions at approximately 1% concentration.
D) X-Ray Powder Diffraction (XRPD)
XRPD data was provided by Kodak Analytical Technology Division (Rochester, N.Y.) using a Rigaku RU 300 system at […].

[3] = Hysteresis / reversibility of water uptake on moving to lower relative humidity; type: physicochemical; settings: for stability / reversion at low relative humidity: moved to humidity as low as 31% RH after 75-95% RH
Experimental: as §2
Hysteresis data (samples stored at high humidity were moved from high to low humidity) for samples stressed at 75-95% RH is shown in FIG. 1b. […] If the moisture was hygroscopic in nature one would expect the moisture level to decrease as the humidity level is decreased.

[4] = Solubility in acetate buffer pH 4.8, 20° C.; type: physicochemical; settings: for solubility (concentration in acetate buffer): 30 min
Experimental: The solubility of unstressed hemihydrate, the monohydrate form and a sample which was equilibrated at 95% RH, i.e. tetrahydrate were compared in acetate buffer. A pH value of 4.8 was chosen. Approximately 250 mg of drug was added to 1 ml of solvent and agitated with a laboratory rotator at 20° C. The sample was filtered (0.45 micron) and diluted (200 ul to 25 ml). This solution was then diluted by a factor of 5 prior to UV analysis. Samples were analyzed at time points of 0.5, 3.0, and 24 hours with the Hewlett Packard 8451A diode array spectrophotometer. Absorbance was measured at 264 nm versus a standard prepared in acetate buffer. The solubility was determined (based on anhydrous drug) for two different samples (of each form) at each time point.

[5] = Intrinsic dissolution rate in acetate buffer pH 4.8, 20° C.; type: physicochemical; settings: for intrinsic dissolution rate (average slope): acetate buffer pH 4.8, 20° C., 100 RPM, triplicate
Experimental: F) Intrinsic Dissolution Rate
The intrinsic dissolution rates of hemihydrate, the monohydrate form and tetrahydrate form were determined in acetate buffer (pH=4.8) at 20° C. A disk (0.5 cm^2) was compressed under the following conditions: 225-250 mg drug, 4000 lbs pressure, and 30 seconds compaction time. The disk was dissolved in a Vander Kamp VK 6000 dissolution bath in 250 ml solvent at 100 RPM. Samples were withdrawn at 2, 4, 6, 8, 10 and 15 minutes and diluted by a factor of 2 for UV analysis. Samples were analyzed at 264 nm with the Hewlett Packard 8451A diode array spectrophotometer. Intrinsic dissolution plots were generated by plotting concentration/area vs. time and determining the slope by linear regression. Each dissolution experiment was run in triplicate.

[6] = ambient temperature and humidity
[7] = listed as disodium tiludronate hemihydrate, hemihydrate

Compound: O=P(O)(O)C(Sc1ccc(Cl)cc1)P(=O)(O)O [Tiludronate, disodium 4-chlorophenylthiomethylenebisphosphonate]
- moisture content as relative humidity is increased ([1]; increasing RH): does not increase in moisture content as relative humidity is increased until a relative humidity is reached where crystalline changes occur

Compound: O=P(O)(O)C(Sc1ccc(Cl)cc1)P(=O)(O)O [hemihydrate, disodium 4-chlorophenylthiomethylenebisphosphonate hemihydrate]
- changes by TGA / FTIR at low relative humidity ([2]; hemihydrate): no changes in spectra
- changes by TGA / FTIR at low relative humidity [2, 7]: no changes by TGA and FTIR
- crystal form change (FTIR, TGA) ([2]; hemihydrate): partial change to monohydrate and tetrahydrate
- crystal form change (FTIR, TGA) [2, 7]: partial transformation to the tetrahydrate form; also recorded: mixture of forms
- crystal form change (FTIR, XRPD, TGA) ([2]; hemihydrate): conversion of the hemihydrate to the tetrahydrate form; also recorded: significant change in the FTIR spectra and X-ray pattern indicative of crystalline rearrangement
- crystal form change (FTIR, XRPD, TGA) [2, 7]: crystalline changes accompany the increase in moisture content; also recorded: changed to a tetrahydrate form
- water content (TGA analysis) ([1]; 12-58% RH, 20° C., 2 weeks): approximately 5%
- water content ([1]; 75% RH, 20° C., 2 weeks): 8.4%
- water content ([1]; 84% RH, 20° C., 2 weeks): 13.7%
- moisture level / total weight loss (TGA) ([1]; 95% RH, 20° C., 2 weeks): 16.4%
- stability / reversion at low relative humidity [3, 7]: did not revert at 31% RH
- moisture level on moving stepwise to lower relative humidity (hysteresis) ([3]; samples stressed at 75-95% RH): not reversible
- solubility at 0.5 h ([4]; acetate buffer, pH 4.8, aqueous buffer, pH 4.8, 20° C., 0.5 hours, based on anhydrous drug, read-out: solubility (concentration in acetate buffer)): 147 mg/mL
- solubility at 24 hours relative to tetrahydrate ([4]; pH 4.8, 20° C., 24 hours): equivalent to the tetrahydrate
- initial solubility relative to tetrahydrate ([4]; pH 4.8, 20° C., initial): higher than the tetrahydrate form
- FTIR analysis of residual solid in solubility samples ([4]; pH 4.8, residual solid): conversion to the tetrahydrate
- intrinsic dissolution rate (average slope) ([5]; hemihydrate): 0.0332 mg/(ml*cm^2 *min)
- FTIR analysis of the disk at the end of the dissolution experiment ([5]; hemihydrate): conversion to the tetrahydrate form was occurring

Compound: O=P(O)(O)C(Sc1ccc(Cl)cc1)P(=O)(O)O [monohydrate, disodium 4-chlorophenylthiomethylene-bisphosphonate monohydrate]
- solubility (concentration in acetate buffer) ([4]; pH 4.8, 20° C., 0.5 hours, based on anhydrous drug, monohydrate): 175 mg/mL
- intrinsic dissolution rate (average slope) ([5]; monohydrate): 0.0351 mg/(ml*cm^2 *min)
- FTIR analysis of the disk at the end of the dissolution experiment ([5]; monohydrate): did not show transformation to the tetrahydrate

Compound: O=P(O)(O)C(Sc1ccc(Cl)cc1)P(=O)(O)O [tetrahydrate, disodium 4-chlorophenylthiomethylenebisphosphonate]
- conversion to monohydrate or hemihydrate [6]: not convened to either the monohydrate or hemihydrate form thereof at ambient temperature and humidity
- crystal form change (FTIR, XRPD, TGA) [2]: little evidence of the monohydrate form
- stability / reversion at low relative humidity [3]: stability of the tetrahydrate form at humidity levels as low as 31% RH
- solubility (concentration in acetate buffer) ([4]; pH 4.8, 20° C., 0.5 hours, based on anhydrous drug): 140 mg/mL
- intrinsic dissolution rate (average slope) [5]: 0.0359 mg/(ml*cm^2 *min)
